Reference: US11541107B2, “Peptides and T cells for use in immunotherapeutic treatment of various cancers” (Immatics Biotechnologies GmbH, priority 2015, dated 2023)

Key:
CD8+ T cells = assay: In vitro T-cell priming assay (aAPCs loaded with peptide/MHC and anti-CD28, pMHC multimer readout; HLA-A*02 and HLA-A*24); type: cell-based, human; conditions: in vitro immunogenicity of HLA class I peptides; peptide-specific T cells by pMHC multimer staining
Description: In order to obtain information regarding the immunogenicity of the TUMAPs of the present invention, the inventors performed investigations using an in vitro T-cell priming assay based on repeated stimulations of CD8+ T cells with artificial antigen presenting cells (aAPCs) loaded with peptide/MHC complexes and anti-CD28 antibody.
In order to perform in vitro stimulations by artificial antigen presenting cells loaded with peptide-MHC complex (pMHC) and anti-CD28 antibody, the inventors first isolated CD8+ T cells from fresh HLA-A*02 leukapheresis products via positive selection using CD8 microbeads (Miltenyi Biotec, Bergisch-Gladbach, Germany) of healthy donors obtained from the University clinics Mannheim, Germany, after informed consent.
PBMCs and isolated CD8+ lymphocytes were incubated in T-cell medium (TCM) until use consisting of RPMI-Glutamax (Invitrogen, Karlsruhe, Germany) supplemented with 10% heat inactivated human AB serum (PAN-Biotech, Aidenbach, Germany), 100 U/ml Penicillin/100 μg/ml Streptomycin (Cambrex, Cologne, Germany), 1 mM sodium pyruvate (CC Pro, Oberdorla, Germany), 20 μg/ml Gentamycin (Cambrex). 2.5 ng/ml IL-7 (PromoCell, Heidelberg, Germany) and 10 U/ml IL-2 (Novartis Pharma, Nürnberg, Germany) were also added to the TCM at this step.
Generation of pMHC/anti-CD28 coated beads, T-cell stimulations and readout was performed in a highly defined in vitro system using four different pMHC molecules per stimulation condition and 8 different pMHC molecules per readout condition.
The purified co-stimulatory mouse IgG2a anti human CD28 Ab 9.3 (Jung et al., 1987) was chemically biotinylated using Sulfo-N-hydroxysuccinimidobiotin as recommended by the manufacturer (Perbio, Bonn, Germany). Beads used were 5.6 μm diameter streptavidin coated polystyrene particles (Bangs Laboratories, Illinois, USA).
pMHC used for positive and negative control stimulations were A*0201/MLA-001 (peptide […] (SEQ ID NO. 418) from modified Melan-A/MART-1) and A*0201/DDX5-001 ([…] from DDX5, SEQ ID NO. 419), respectively.
800.000 beads/200 μl were coated in 96-well plates in the presence of 4×12.5 ng different biotin-pMHC, washed and 600 ng biotin anti-CD28 were added subsequently in a volume of 200 μl. Stimulations were initiated in 96-well plates by co-incubating 1×10^6 CD8+ T cells with 2×10^5 washed coated beads in 200 μl TCM supplemented with 5 ng/ml IL-12 (PromoCell) for 3 days at 37° C. Half of the medium was then exchanged by fresh TCM supplemented with 80 U/ml IL-2 and incubating was continued for 4 days at 37° C. This stimulation cycle was performed for a total of three times. For the pMHC multimer readout using 8 different pMHC molecules per condition, a two-dimensional combinatorial coding approach was used as previously described (Andersen et al., 2012) with minor modifications encompassing coupling to 5 different fluorochromes. Finally, multimeric analyses were performed by staining the cells with Live/dead near IR dye (Invitrogen, Karlsruhe, Germany), CD8-FITC antibody clone SK1 (BD, Heidelberg, Germany) and fluorescent pMHC multimers. For analysis, a BD LSRII SORP cytometer equipped with appropriate lasers and filters was used. Peptide specific cells were calculated as percentage of total CD8+ cells. Evaluation of multimeric analysis was done using the FlowJo software (Tree Star, Oregon, USA). In vitro priming of specific multimer+CD8+ lymphocytes was detected by comparing to negative control stimulations.
Exemplary flow cytometry results after TUMAP-specific multimer staining for 2 peptides of the invention are shown in FIGS. 3A-3B together with corresponding negative controls. Results for 5 peptides from the invention are summarized in Table12A. Exemplary flow cytometry results after TUMAP-specific multimer staining for 7 peptides of the invention are shown in FIGS. 4A-4C and FIGS. 5A-5D together with corresponding negative controls.

HLA-A*24 = assay: MHC binding assay, UV-ligand exchange with beta2m ELISA, HLA-A*24; set-up: species or system human; conditions: binding to HLA-A*24 ranged by peptide exchange yield (UV-ligand exchange, beta2m ELISA)
Summary of the method: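 Peptide–MHC complexes made by UV-ligand exchange of a UV-cleavable peptide. Exchange yield measured by ELISA: monomers diluted 100-fold on streptavidin-coated plates, 1 h at 37°C, detected with HRP anti-β2m (2 ug/ml) and TMB, absorbance at 450 nm.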

Row | Peptide exchange (HLA-A*24) | Substance | Wells positive [%] (CD8+ T cells)
1 | +++ (50%-75% = +++) | 160 (RYGDGGSSF; listed as Homo sapiens) [compound 160] | + (<20% = +)
2 | +++ (50%-75% = +++) | 161 (KYPDIVQQF; listed as Homo sapiens) [compound 161] | + (<20% = +)
3 | ++ (20%-49% = ++) | 162 (KYTSYILAF; listed as Homo sapiens) [compound 162] | + (<20% = +)
4 | ++++ (>=75% = ++++) | 163 (RYLTISNLQF; listed as Homo sapiens) [compound 163] | + (<20% = +)
5 | +++ (50%-75% = +++) | 164 (HYVPATKVF; listed as Homo sapiens) [compound 164] | + (<20% = +)
6 | ++++ (>=75% = ++++) | 166 (FYTLPFHLI; listed as Homo sapiens) [compound 166] | ++++ (>=70% = ++++)
7 | +++ (50%-75% = +++) | 167 (RYGFYYVEF; listed as Homo sapiens) [compound 167] | ++++ (>=70% = ++++)
8 | ++++ (>=75% = ++++) | 172 (VFIFKGNEF; listed as Homo sapiens) [compound 172] | + (<20% = +)
9 | +++ (50%-75% = +++) | 174 (VYEKNGYIYF; listed as Homo sapiens) [compound 174] | ++++ (>=70% = ++++)
10 | +++ (50%-75% = +++) | 175 (LYSPVPFTL; listed as Homo sapiens) [compound 175] | + (<20% = +)
11 | +++ (50%-75% = +++) | 177 (VYFKAGLDVF; listed as Homo sapiens) [compound 177] | + (<20% = +)
12 | +++ (50%-75% = +++) | 180 (KYLQVVGMF; listed as Homo sapiens) [compound 180] | + (<20% = +)
13 | +++ (50%-75% = +++) | 181 (VYPPYLNYL; listed as Homo sapiens) [compound 181] | ++++ (>=70% = ++++)
14 | ++++ (>=75% = ++++) | 186 (VFTTSSNIF; listed as Homo sapiens) [compound 186] | + (<20% = +)
15 | +++ (50%-75% = +++) | 190 (LYSELTETL; listed as Homo sapiens) [compound 190] | ++++ (>=70% = ++++)
16 | +++ (50%-75% = +++) | 344 (EYNSDLHQF; listed as Homo sapiens) [compound 344] | + (<20% = +)
17 | +++ (50%-75% = +++) | 353 (TYGKIDLGF; listed as Homo sapiens) [compound 353] | + (<20% = +)
18 | +++ (50%-75% = +++) | 354 (VYNEQIRDLL; listed as Homo sapiens) [compound 354] | + (<20% = +)
19 | ++++ (>=75% = ++++) | 356 (NYMPGQLTI; listed as Homo sapiens) [compound 356] | + (<20% = +)
20 | +++ (50%-75% = +++) | 358 (YYSEVPVKL; listed as Homo sapiens) [compound 358] | ++++ (>=70% = ++++)
21 | ++++ (>=75% = ++++) | 359 (NYGVLHVTF; listed as Homo sapiens) [compound 359] | + (<20% = +)
22 | ++ (20%-49% = ++) | 363 (SYAELGTTI; listed as Homo sapiens) [compound 363] | + (<20% = +)
23 | ++++ (>=75% = ++++) | 365 (VFIDHPVHL; listed as Homo sapiens) [compound 365] | + (<20% = +)
24 | ++++ (>=75% = ++++) | 380 (VYTGIDHHW; listed as Homo sapiens) [compound 380] | + (<20% = +)
